Among the data in PubChem BioAssay (NCI) are GI50 and TGI values, retold here.

Each structure is given as a SMILES string.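 Exposure lasted 48 hours, with cells grown in 96-well plates and compounds tested at five concentrations. Abbreviation: GI50, concentration required for 50% inhibition of growth. The concentration for full growth arrest is given as TGI.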 A value given as a limit tells only on which side of the number the result lay.

Common to all, as to assay: NCI anticancer screen, dose series, 48 h
Assay [1] deals with HT29 colon.
Assay [2] relates to CCRF-CEM leukemia.
The test system of assay [3] is SNB-75 CNS.
The subject of assay [4] is K-562 leukemia.
In assay [5] the test system is HCC-2998 colon.
For assay [6], the system named is HOP-62 NSCLC.
The test system of assay [7] is IGROV1 ovarian.
For assay [8], the system named is SW-620 colon.

On to `C[C@]12CCc3nc(Nc4cccc(O)c4)sc3C1=CC[C@@H]1[C@@H]2CC[C@]2(C)/C(=N\NC(N)=S)CC[C@@H]12`, for which the GI50 was 1.52 µM in assay [1]; 1.97 µM in assay [2]; 0.792 µM in assay [3]; 2.15 µM in assay [4]; 1.86 µM in assay [5]; 1.86 µM in assay [6]. Further, the GI50 is 2.31 µM in assay [7] and 1.91 µM in assay [8]. For the same compound, the TGI in assay [1] was 3.73 µM; in assay [2] it was above 100 µM; in assay [3], 7.01 µM; in assay [4], above 100 µM; in assay [5], 3.49 µM; in assay [6], 4.07 µM. Moreover, the values for the TGI in assay [7] and in assay [8] were 6.25 µM and 3.8 µM, respectively.

`CCOC(=O)[C@@H](C)C[C@H](Cc1ccccc1)NC(=O)c1nc([C@@H](C[C@H](C(C)C)N(C)C(=O)[C@@H](NC(=O)[C@H]2CCCCN2C)C(C)C)OC(C)=O)sc1CCOCc1ccccc1`: the GI50 in assay [1] is 0.0375 µM; in assay [2], 0.0795 µM; in assay [3], 0.0433 µM; in assay [4], 0.0358 µM; in assay [5] it was 0.119 µM; in assay [6] it was 0.226 µM. The GI50 in assay [7] was 0.0995 µM; in assay [8], 0.064 µM. In addition, the TGI was 1.4 µM in assay [1]; above 6.52 µM in assay [2]; 2.76 µM in assay [3]; 1.92 µM in assay [4]; 1.13 µM in assay [5]; 2.91 µM in assay [6]. The values for the TGI in assay [7] and in assay [8] were 2.81 µM and above 6.6 µM, respectively.

For `N#Cc1c(NC(=O)NCc2ccccc2)sc2c1CCCC2`, the GI50 was 0.392 µM in assay [1]; 0.459 µM in assay [2]; 0.249 µM in assay [3]; 0.43 µM in assay [4]; 1.72 µM in assay [5]; 1.51 µM in assay [6]. For the same compound, the values for the GI50 in assay [7] and in assay [8] were 0.749 µM and 0.388 µM, respectively. Moreover, the TGI is above 100 µM in assay [1]; above 100 µM in assay [2]; 36 µM in assay [3]; above 100 µM in assay [4]; above 100 µM in assay [5]; above 74.8 µM in assay [6]. Further, the TGI in assay [7] and in assay [8] was above 100 µM throughout.

In the case of `O=c1cc(-c2ccccc2)oc2ccc(OC/C(=N/O)c3ccccc3)cc12`, the GI50 in assay [1] was 2.02 µM; in assay [2], 1.51 µM; in assay [3], 2.76 µM; in assay [4], 2.53 µM; in assay [5] it was 11 µM; in assay [6], 9.62 µM. Also, the GI50 in assay [7] is 7.62 µM; in assay [8], 1.74 µM. Further, the TGI in assay [1], in assay [2], in assay [3], in assay [4], in assay [5] and in assay [6] was above 50 µM in each case. The TGI in assay [7] and in assay [8] was above 50 µM in each case.

As for `COC1C(CO)OC(n2c3ccccc3c3c4c(c5c6ccccc6[nH]c5c32)C(=O)NC4=O)C(O)C1O` (stereo not drawn), the GI50 in assay [1] is 0.23 µM; in assay [2] it was below 0.01 µM; in assay [3], 0.158 µM; in assay [4], below 0.0145 µM; in assay [5], 0.127 µM; in assay [6], 0.0514 µM. Also, the figures for the GI50 in assay [7] and in assay [8] were 0.0844 µM and below 0.01 µM, respectively. For the same compound, the TGI in assay [1] was above 37.7 µM; in assay [2] it was 2.42 µM; in assay [3], 3.85 µM; in assay [5] it was 1.5 µM; in assay [6], 1.2 µM; in assay [7], 3.49 µM. In assay [8], this compound gave a TGI of 0.616 µM.

For `COc1ccc(/C=C(/C(=O)N2CCN(c3ccccc3)CC2)c2cc(OC)c(OC)c(OC)c2)cc1N`, the GI50 is 0.366 µM in assay [1]; 0.301 µM in assay [2]; 0.22 µM in assay [3]; 0.316 µM in assay [4]; 0.556 µM in assay [5]; 0.429 µM in assay [6]. Also, the GI50 in assay [7] was 0.697 µM; in assay [8], 0.401 µM. For the same compound, the TGI in assay [1] was 13.3 µM; in assay [2], above 100 µM; in assay [3] it was above 100 µM; in assay [4], above 100 µM; in assay [5], above 100 µM; in assay [6], above 100 µM. In addition, the TGI in assay [7] and in assay [8] was above 100 µM in each case.

For the compound `CN1CCC(COc2cnc(-c3cccc(Cn4nc(-c5cccc(C#N)c5)ccc4=O)c3)nc2)CC1`, the GI50 is 2.04 µM in assay [1]; 2.56 µM in assay [2]; 1.81 µM in assay [3]; 1.74 µM in assay [4]; 6.34 µM in assay [5]; 4.24 µM in assay [6]. For the same compound, the GI50 in assay [7] is 6.8 µM; in assay [8], 3.55 µM. Also, the TGI stood at 4.66 µM in assay [1]; 19.6 µM in assay [2]; 5.28 µM in assay [3]; 4.32 µM in assay [4]; 18.7 µM in assay [5]; 14.2 µM in assay [6]. In addition, the TGI was found to be 25.2 µM in assay [7] and 31.3 µM in assay [8].

For the compound `Cc1ccc(Cl)cc1Nc1nc(C(F)(F)F)ccc1C(=O)N/N=C/c1cccnc1`, the GI50 in assay [1] was 5.73 µM; in assay [2] it was 4.14 µM; in assay [3], 4.93 µM; in assay [4] it was 1.71 µM; in assay [5] it was 2.03 µM; in assay [6], 4.28 µM. Further, the GI50 in assay [7] is 4.22 µM; in assay [8], 3.32 µM. Further, the TGI in assay [1] was 20.7 µM; in assay [2], above 100 µM; in assay [3], 19.5 µM; in assay [4], above 39 µM; in assay [5], 11.1 µM; in assay [6], 18.5 µM. For the same compound, the results for the TGI in assay [7] and in assay [8] were 15.8 µM and 14.9 µM, respectively.

With `CO/C=C/C(=O)c1cc2cnc3c(=N)cc(NC(=O)C(C)C)c([nH]1)c23`, the GI50 in assay [1] was 0.0801 µM; in assay [2], 0.0184 µM; in assay [3] it was 0.00763 µM; in assay [4] it was 0.117 µM; in assay [5], 0.291 µM; in assay [6], 0.0844 µM. The GI50 in assay [7] was 0.0187 µM; in assay [8] it was 0.0744 µM. Also, the TGI in assay [1] was 0.721 µM; in assay [2], 4.94 µM; in assay [3], 0.0982 µM; in assay [4], 17.4 µM; in assay [5], 1.63 µM; in assay [6], 1.04 µM. Besides, the TGI in assay [7] worked out at 0.138 µM; in assay [8], 0.718 µM.
